From patent publication US20240114902A1, “COMPOSITIONS AND METHODS FOR DETERRING OVIPOSITION BY FRUIT FLIES” (The United States of America, as represented by The …, priority 2022, published 2024)

Legend:
[1] = test system: Bactrocera dorsalis (OFF); assay: OFF two-choice cage oviposition bioassay on guava juice-infused agar; type: in vivo; set-up: key to Activity (OFF oviposition group): Negative: “OFF negative” (i.e., oviposition reduced); Neutral: “OFF neutral” (i.e., no effect on oviposition); Positive: “OFF positive” (i.e., oviposition increased); settings: for OFF oviposition reduction vs control agar: 20 mg/agar, 3 days; for Activity (OFF oviposition group): individual CFA component
Description: Evaluation of oviposition deterrence of CFA: OFF oviposition bioassays were conducted using laboratory two-choice cage experiments with guava juice-infused agar as an oviposition substrate. The agar plates were prepared by pouring 30 mL of boiled agar mixture [1000 mL distilled water, 500 mL guava juice (Deans Foods, El Paso, Texas, USA), 10 g agar, 0.6 g methylparaben, 6.7 mL 95% ethanol, and 3 mL acetic acid] into a 30 mL deli plastic cup to gel. The agar was then covered with a lid to avoid desiccation. The two-choice oviposition bioassay was conducted in screened cages using 20 mated OFF females per cage (12-18 day-old; Jang E B et al., 1997, “Attraction of female oriental fruit fly, Bactrocera dorsalis, to volatile semiochemicals from leaves and extracts of a non-host plant, Panax (Polyscias guilfoylei) in laboratory and olfactometer assays,” J. Chem. Ecol. 23:1389-1401) over 3 days. Each cage was provided with a ball of water-saturated cotton, sugar, and protein hydrolysate in separate 30 mL deli cups and two guava juice agar plates-one treated with CFA diluted in hexane and the other treated with the hexane control. The agar plates were surface-treated either with 200 μL of hexane or 200 μL of CFA in one of 4 doses tested (20, 2, 0.2, and 0.02 mg/200 μL of hexane), placed into a fume hood for 10 minutes prior to use in bioassays, and positioned upside-down (i.e., treated side down) on the center of the outside top of the screened cage 17 cm apart from each other (i.e., one each of control and CFA treated), allowing female flies to oviposit on guava juice agar from the bottom through the cage screen. After three days, OFF eggs in the guava agar were gently separated from the agar in water and the number of eggs were individually counted (up to 100 eggs) or estimated volumetrically at 1 mL OFF eggs=20,000 eggs (Stephanie Gayle personal communication). The experiment was replicated six times per treatment. Determination of bioactive oviposition deterrent components from CFA: A series of bioassays was conducted to identify key deterrent components of CFA for OFF using the same two-choice bioassay design described above. […] Ethanol was used as control and for preparing dilutions of C16:0 and C18:0. Hexane was used as control and for dilutions of the other six compounds tested. Based on the outcome of these bioassays, the eight free fatty acid components were assigned to “OFF negative” (i.e., oviposition reduced), “OFF neutral” (i.e., no effect on oviposition), and “OFF positive” (i.e., oviposition increased) compound groups. Using these groupings, four different blends were formulated (indicated in Table 1), composed at the equivalent ratios and concentrations of each component found in CFA (Zhu J J et al., 2018, supra), to determine key bioactive CFA components in terms of oviposition deterrence on OFF. The approach involved testing the bioactivity of the OFF negative-component blend (4c blend) for oviposition deterrence at three different doses (2, 0.2, and 0.02 mg CFA equivalent/agar), first comparing with hexane control, then with CFA at respective equivalent doses. As the 4c blend was not as effective as CFA, a “OFF negative+OFF neutral” component blend (6c blend) was then formulated, and its effect compared with CFA at 2 and 0.2 mg CFA equivalent/agar. Two subtraction blends with one of the two OFF neutral components removed from the 6c blend (5c-i and 5c-ii blends) were formulated and compared with the 6c blend at 2 and 0.2 mg CFA equivalent/agar. The experiment was replicated four to six times per treatment.

non-SWD drosophilids = assay: Field test 2: sentinel raspberries in guava orchard, non-SWD drosophilids; type: in vivo, D. immigrans, D. simulans, D. melanogaster; settings: 20 mg CFA or equivalent dose/raspberry, 2 days
Description: (§1) Field test 2 The oviposition deterrence of the 2c key-component blend and its two individual components against SWD and non-SWD drosophilids was tested under field conditions. This experiment was conducted in a guava orchard (19° 36′33.6″N, 155° 04′ 12.6″W) located near Hilo, Hawaii. To monitor oviposition, four sentinel organic raspberries purchased from a local grocery were placed (receptacles stuffed with cotton) inside a deli cup (600 mL; Placon, Madison, Wisconsin, USA). Each cup had nine 1 cm diameter holes spaced 3 cm apart along the cup's circumference and 8.5 cm from the bottom, which allowed the drosophilids to enter the cup. The four raspberries in each cup were surface-treated with one of five treatments: 1) 2c blend at 20 mg CFA equivalent/200 μL hexane/raspberry, 2) C8:0 at 20 mg CFA equivalent/200 μL hexane/raspberry, 3) C10:0 at 20 mg CFA equivalent/200 μL hexane/raspberry, 4) CFA at 20 mg/200 μL hexane/raspberry, or 5) 200 μL of hexane control/raspberry. The deli-cup traps were hung in guava trees 1.5 m from the ground with at least 10 m spacing between adjacent traps. […] Raspberries were removed from the traps, placed in rearing cups (600 mL deli cup with organdy cap), held in environmental chamber (22.1±1.9° C., 71.7±3.1% RH, 16:8 L:D), and monitored over a 2-week period. All emerged adults were counted and identified as SWD or non-SWD drosophilids. […]

Bactrocera dorsalis = assay: B. dorsalis spatial deterrence, two-choice traps baited with guava juice; type: in vivo; settings: tested individually
Description: In addition to CFA, a series of odd-numbered carbon fatty acids (C9:0 to C17:0) and fatty acid methyl esters were evaluated for the spatial deterrence to B. dorsalis that results in oviposition reduction. Table 3 below lists the fatty acid methyl esters tested for spatial repellency for Bactrocera dorsalis. […] FIG. 16A, FIG. 16C, FIG. 16E, FIG. 16G, FIG. 16I, FIG. 16K, FIG. 16M, FIG. 16O, FIG. 16Q, and FIG. 16S show the mean numbers (±SEM) of mated female B. dorsalis flies captured, and FIG. 16B, FIG. 16D, FIG. 16F, FIG. 16H, FIG. 16J, FIG. 16L, FIG. 16N, FIG. 16P, FIG. 16R, and FIG. 16T show the number of B. dorsalis eggs oviposited in traps baited with guava juice (control) and with guava juice plus one of the coconut fatty acid methyl ester compounds in two-choice bioassays. For each test, different letter on the bar indicate a significant difference by Tukey-Kramer tests at P<0.05, n=4.

Drosophila suzukii (SWD) = assay: Field test 2: sentinel raspberries in guava orchard, SWD adults emerged; type: in vivo; settings: 20 mg CFA equivalent/raspberry, total over replicates
Description: as §1

Structure (SMILES) | OFF oviposition reduction vs control agar [1] | Activity (OFF oviposition group) [1] | OFF oviposition deterrence at lower dose ([1]; individual compound, 2 mg dose) | effect on oviposition from resident (non-SWD) drosophilids (non-SWD drosophilids) | effect on female B. dorsalis attraction and oviposition to host fruit odors (Bactrocera dorsalis) | SWD adults emerging from treated raspberries (Drosophila suzukii (SWD))
CCCCCCCC(=O)O [C8:0, caprylic acid] | 95% | Negative | maintained OFF oviposition deterrence | not effective | significantly reduced | 
CCCCCCCCCC(=O)O [C10:0, capric acid] | 92% | Negative |  | not effective |  | 2 SWD
